Article PMC12298351, “Novel 3,19-(N-Phenyl-3-(4-fluorophenyl)-pyrazole) Acetal of Andrographolide Promotes Cell Cycle Arrest and Apoptosis in MDA-MB-231 Breast Cancer Cells” (Pharmaceuticals, 2025)

Key:
KM12 = conditions: KM12, Colon
SK-MEL-5 = conditions: SK-MEL-5, Melanoma; for CC50: read-out: 50% lethal concentration (LC50)
MDA-MB-231 = conditions: for GI50: MDA-MB-231, Breast; for Total growth inhibition (TGI) / CC50: MDA-MB-231/ATCC, Breast; for CC50: read-out: 50% lethal concentration (LC50)
DU-145 = conditions: DU-145, Prostate; for CC50: read-out: 50% lethal concentration (LC50)
MDA-MB-468 = conditions: MDA-MB-468, Breast; for CC50: read-out: 50% lethal concentration (LC50)
MALME-3M = conditions: Melanoma
SK-MEL-2 = conditions: SK-MEL-2, Melanoma
HT29 = conditions: HT29, Colon; for CC50: read-out: 50% lethal concentration (LC50)
NCI-H23 = conditions: for Total growth inhibition (TGI) / CC50: NCI-H23, Non-Small Cell Lung; for GI50: NCI-H23, Non-Small-Cell Lung; for CC50: read-out: 50% lethal concentration (LC50)
SW-620 = conditions: SW-620, Colon; for CC50: read-out: 50% lethal concentration (LC50)
MCF7 = conditions: MCF7, Breast; for CC50: read-out: 50% lethal concentration (LC50)
T-47D = conditions: for GI50 / Total growth inhibition (TGI): Breast; for CC50: read-out: 50% lethal concentration (LC50), Breast
BT-549 = format: cell-based; conditions: BT-549, Breast
SR = conditions: for GI50 / Total growth inhibition (TGI): Leukemia; for CC50: read-out: 50% lethal concentration (LC50), Leukemia
MOLT-4 = conditions: MOLT-4, Leukemia; for CC50: read-out: 50% lethal concentration (LC50)
HOP-62 = conditions: for Total growth inhibition (TGI) / CC50: HOP-62, Non-Small Cell Lung; for GI50: HOP-62, Non-Small-Cell Lung; for CC50: read-out: 50% lethal concentration (LC50)
[1] = DPPH radical scavenging assay; conditions: 25 µM test compound, 0.1 mM DPPH, acetonitrile, 30 min
Experimental: A stable free radical DPPH (2,2-Diphenyl-1-picrylhydrazyl) assay was employed to test the antioxidant activity of all the synthesized compounds. Concisely, 25 µM of the test compounds were dissolved in acetonitrile and combined with 0.1 mM of DPPH (in acetonitrile) in a 1:2 ratio (80 µL and 160 µL). Then, the mixture was left undisturbed in the dark for 30 min at room temperature. After 30 min, the absorbance of the solutions was instantly measured at 517 nm using a Varioskan Multiplate Reader (Thermo Fisher Scientific, Mumbai, India). Ascorbic acid (in acetonitrile) was used as the positive control, and andrographolide and isoandrogapholide (in acetonitrile) were used as the standards. The following equation was used to determine the DPPH radical scavenging activity:% Radical scavenging activity = (Ac − As)/Ac × 100 where Ac = the absorbance of the blank (DPPH solution), and As = the absorbance of the test samples

IGROV1 = conditions: IGROV1, Ovarian; for CC50: read-out: 50% lethal concentration (LC50)
OVCAR-5 = conditions: OVCAR-5, Ovarian; for CC50: read-out: 50% lethal concentration (LC50)
M14 = format: cell-based; conditions: M14, Melanoma
SF-268 = conditions: SF-268, CNS; for CC50: read-out: 50% lethal concentration (LC50)
CAKI-1 = conditions: CAKI-1, Renal; for CC50: read-out: 50% lethal concentration (LC50)
HL-60(TB) = conditions: for GI50 / Total growth inhibition (TGI): Leukemia; for CC50: read-out: 50% lethal concentration (LC50), Leukemia
HCC-2998 = conditions: HCC-2998, Colon
ACHN = conditions: for GI50 / Total growth inhibition (TGI): Renal; for CC50: read-out: 50% lethal concentration (LC50), Renal
LOX IMVI = conditions: for GI50 / Total growth inhibition (TGI): Melanoma; for CC50: read-out: 50% lethal concentration (LC50), Melanoma
A549/ATCC = conditions: for Total growth inhibition (TGI): Non-Small Cell Lung; for GI50: Non-Small-Cell Lung; for CC50: read-out: 50% lethal concentration (LC50), Non-Small Cell Lung
SK-MEL-28 = conditions: SK-MEL-28, Melanoma; for CC50: read-out: 50% lethal concentration (LC50)

Work on `C=C1CCC2C3(C)COC(c4cn(-c5ccccc5)nc4-c4cccc(F)c4)OC3CCC2(C)C1CC=C1C(=O)OCC1O` (stereo not shown) [1c] yielded a GI50 (KM12) of 2.26 µM, a Total growth inhibition (TGI) (KM12) of 4.47 µM and a GI50 (SK-MEL-5) of 1.65 µM. It also gave a Total growth inhibition (TGI) (SK-MEL-5) of 3.02 µM, a CC50 (SK-MEL-5) of 5.51 µM and a GI50 (MDA-MB-231) of 1.72 µM. For the same compound, the Total growth inhibition (TGI) (MDA-MB-231) was 3.29 µM, the CC50 (MDA-MB-231) was 6.28 µM and the GI50 (DU-145) was 1.97 µM. The Total growth inhibition (TGI) (DU-145) was 4.25 µM, the CC50 (DU-145) was 9.15 µM and the GI50 (MDA-MB-468) was 1.63 µM. The Total growth inhibition (TGI) (MDA-MB-468) was 3.13 µM, the CC50 (MDA-MB-468) was 6.01 µM and the GI50 (MALME-3M) was 1.87 µM. It also gave a Total growth inhibition (TGI) (MALME-3M) of 3.5 µM, a GI50 (SK-MEL-2) of 1.79 µM and a Total growth inhibition (TGI) (SK-MEL-2) of 3.29 µM. For the same compound, the GI50 (HT29) was 1.7 µM, the Total growth inhibition (TGI) (HT29) was 4.51 µM and the CC50 (HT29) was > 100 µM. For the same compound, the Total growth inhibition (TGI) (NCI-H23) was 3.57 µM, the GI50 (NCI-H23) was 1.79 µM and the CC50 (NCI-H23) was 7.09 µM. The GI50 (SW-620) was 5.71 µM, the Total growth inhibition (TGI) (SW-620) was > 100 µM and the CC50 (SW-620) was > 100 µM. For the same compound, the GI50 (MCF7) was 1.63 µM, the Total growth inhibition (TGI) (MCF7) was 5.49 µM and the CC50 (MCF7) was 50.1 µM. For the same compound, the GI50 (T-47D) was 1.39 µM, the Total growth inhibition (TGI) (T-47D) was 4.07 µM and the CC50 (T-47D) was > 100 µM. It also gave a GI50 (BT-549) of 1.3 µM, a Total growth inhibition (TGI) (BT-549) of 3.01 µM and a GI50 (SR) of 2.2 µM. For the same compound, the Total growth inhibition (TGI) (SR) was > 100 µM, the CC50 (SR) was > 100 µM and the GI50 (MOLT-4) was 0.69 µM. For the same compound, the CC50 (MOLT-4) was > 100 µM, the Total growth inhibition (TGI) (HOP-62) was 3.86 µM and the GI50 (HOP-62) was 1.74 µM. For the same compound, the CC50 (HOP-62) was 8.55 µM, the “% DPPH radical scavenging activity” value [1] was 58.33% and the GI50 (IGROV1) was 2.07 µM. The Total growth inhibition (TGI) (IGROV1) was 5.72 µM, the CC50 (IGROV1) was > 100 µM and the GI50 (OVCAR-5) was 1.92 µM. It also gave a Total growth inhibition (TGI) (OVCAR-5) of 4.61 µM, a CC50 (OVCAR-5) of 31 µM and a GI50 (M14) of 1.75 µM. For the same compound, the Total growth inhibition (TGI) (M14) was 3.59 µM, the GI50 (SF-268) was 2.27 µM and the Total growth inhibition (TGI) (SF-268) was 5.61 µM. It also gave a CC50 (SF-268) of 28.4 µM, a GI50 (CAKI-1) of 1.56 µM and a Total growth inhibition (TGI) (CAKI-1) of 3.09 µM. For the same compound, the CC50 (CAKI-1) was 6.13 µM, the GI50 (HL-60(TB)) was 0.76 µM and the Total growth inhibition (TGI) (HL-60(TB)) was > 100 µM. For the same compound, the CC50 (HL-60(TB)) was > 100 µM, the GI50 (HCC-2998) was 1.73 µM and the Total growth inhibition (TGI) (HCC-2998) was 3.2 µM. The GI50 (ACHN) was 1.8 µM, the Total growth inhibition (TGI) (ACHN) was 3.53 µM and the CC50 (ACHN) was 6.94 µM. The GI50 (LOX IMVI) was 1.44 µM, the Total growth inhibition (TGI) (LOX IMVI) was 2.75 µM and the CC50 (LOX IMVI) was 5.25 µM. The Total growth inhibition (TGI) (A549/ATCC) was 25.3 µM, the GI50 (A549/ATCC) was 3.88 µM and the CC50 (A549/ATCC) was > 100 µM. The GI50 (SK-MEL-28) was 1.77 µM, the Total growth inhibition (TGI) (SK-MEL-28) was 3.35 µM and the CC50 (SK-MEL-28) was 6.36 µM.

Work on `C=C1CCC2C3(C)COC(c4cn(-c5ccccc5)nc4-c4cccc(Cl)c4)OC3CCC2(C)C1CC=C1C(=O)OCC1O` (stereo not shown) [1d] yielded a GI50 (KM12) of 1.67 µM, a Total growth inhibition (TGI) (KM12) of 3.32 µM and a GI50 (SK-MEL-5) of 1.63 µM. For the same compound, the Total growth inhibition (TGI) (SK-MEL-5) was 3 µM, the CC50 (SK-MEL-5) was 5.53 µM and the GI50 (MDA-MB-231) was 1.49 µM. The Total growth inhibition (TGI) (MDA-MB-231) was 2.99 µM, the CC50 (MDA-MB-231) was 5.97 µM and the GI50 (DU-145) was 1.88 µM. For the same compound, the Total growth inhibition (TGI) (DU-145) was 3.98 µM, the CC50 (DU-145) was 8.43 µM and the GI50 (MDA-MB-468) was 1.74 µM. The Total growth inhibition (TGI) (MDA-MB-468) was 3.31 µM, the CC50 (MDA-MB-468) was 6.3 µM and the GI50 (MALME-3M) was 1.47 µM. For the same compound, the Total growth inhibition (TGI) (MALME-3M) was 2.85 µM, the GI50 (SK-MEL-2) was 1.57 µM and the Total growth inhibition (TGI) (SK-MEL-2) was 3.05 µM. It also gave a GI50 (HT29) of 1.49 µM, a Total growth inhibition (TGI) (HT29) of 3.13 µM and a CC50 (HT29) of 6.57 µM. For the same compound, the Total growth inhibition (TGI) (NCI-H23) was 3.82 µM, the GI50 (NCI-H23) was 1.75 µM and the CC50 (NCI-H23) was 8.31 µM. For the same compound, the GI50 (SW-620) was 1.53 µM, the Total growth inhibition (TGI) (SW-620) was 3.4 µM and the CC50 (SW-620) was 7.55 µM. The GI50 (MCF7) was 1.48 µM, the Total growth inhibition (TGI) (MCF7) was 66.8 µM and the CC50 (MCF7) was > 100 µM. For the same compound, the GI50 (T-47D) was 1.63 µM, the Total growth inhibition (TGI) (T-47D) was 4.76 µM and the CC50 (T-47D) was > 100 µM. The GI50 (BT-549) was 1.57 µM, the Total growth inhibition (TGI) (BT-549) was 3.63 µM and the GI50 (SR) was 1.29 µM. The Total growth inhibition (TGI) (SR) was 4.03 µM, the CC50 (SR) was > 100 µM and the GI50 (MOLT-4) was 1.14 µM. The Total growth inhibition (TGI) (MOLT-4) was 3.82 µM, the CC50 (MOLT-4) was > 100 µM and the Total growth inhibition (TGI) (HOP-62) was 4.29 µM. For the same compound, the GI50 (HOP-62) was 1.78 µM, the CC50 (HOP-62) was > 100 µM and the “% DPPH radical scavenging activity” value [1] was 59.32%. The GI50 (IGROV1) was 1.39 µM, the Total growth inhibition (TGI) (IGROV1) was 3.22 µM and the CC50 (IGROV1) was 7.5 µM. For the same compound, the GI50 (OVCAR-5) was 1.78 µM, the Total growth inhibition (TGI) (OVCAR-5) was 4.21 µM and the CC50 (OVCAR-5) was 7.73 µM. For the same compound, the GI50 (M14) was 1.69 µM, the Total growth inhibition (TGI) (M14) was 3.88 µM and the GI50 (SF-268) was 1.6 µM. It also gave a Total growth inhibition (TGI) (SF-268) of 3.34 µM, a CC50 (SF-268) of 6.94 µM and a GI50 (CAKI-1) of 1.32 µM. For the same compound, the Total growth inhibition (TGI) (CAKI-1) was 2.66 µM, the CC50 (CAKI-1) was 5.39 µM and the GI50 (HL-60(TB)) was 1.38 µM. The Total growth inhibition (TGI) (HL-60(TB)) was 4.97 µM, the CC50 (HL-60(TB)) was > 100 µM and the GI50 (HCC-2998) was 1.81 µM. It also gave a Total growth inhibition (TGI) (HCC-2998) of 3.37 µM, a GI50 (ACHN) of 1.64 µM and a Total growth inhibition (TGI) (ACHN) of 3.01 µM. The CC50 (ACHN) was 5.52 µM, the GI50 (LOX IMVI) was 1.61 µM and the Total growth inhibition (TGI) (LOX IMVI) was 2.97 µM. The CC50 (LOX IMVI) was 5.5 µM, the Total growth inhibition (TGI) (A549/ATCC) was 11.3 µM and the GI50 (A549/ATCC) was 2.82 µM. For the same compound, the CC50 (A549/ATCC) was 69.1 µM, the GI50 (SK-MEL-28) was 1.8 µM and the Total growth inhibition (TGI) (SK-MEL-28) was 3.37 µM. The CC50 (SK-MEL-28) was 6.33 µM.
